According to patent US8034780B2, “Isolation, purification, and structure elucidation of the antiproliferative compound coibamide A” (priority 2007, dated 2011):
Where “and” joins values, the source holds several entries; their conditions need not be identical. Equal entries are not always repeated. Bridge positions count the residues as written; N and C are the ends. Square brackets hold non-standard residues; d marks the D form. Peptide text beside a SMILES is read from it. * marks the point of attachment. ξ: configuration not given here. NMeI = CC[CH](C)[CH](NC)C(=O)O; ξNMe2Val = CC(C)C(C(=O)*)N(C)C; NMeT = CN[CH](C(=O)O)[CH](C)O; NMeL = CN[CH](CC(C)C)C(=O)O; Hiv = CC(C)[CH](O)C(=O)O; NMeS = CN[CH](CO)C(=O)O; NMeA = CN[CH](C)C(=O)O

Experiments:
UACC-62 = assay: NCI60 screen, UACC-62; format: cell-based, human; conditions: second screen
Description: (§1) Coibamide A was tested against the National Cancer Institute NCI60 tumor cell lines (dtp.nci.nih.gov/branches/btb/ivclsp.html; Shoemaker, R. H. (2006) Nat. Rev. Cancer, 6:813-823), which comprises 60 human cancer cell lines including leukemias, melanomas, ovarian, renal, prostate, breast, colon, lung and central nervous system (CNS) cancers (the data from two screens are provided in FIGS. 3A and 3B). […] Growth inhibition of 50% (GI50) is the drug concentration resulting in a 50% reduction in the net protein increase in control cells during the drug incubation. Similarly, total growth inhibition (TGI) is the drug concentration resulting in zero net protein increase in control cells, and the lethal concentration of 50% (LC50) is the drug concentration resulting in a 50% reduction in the measured protein at the end of the drug treatment as compared to that at the beginning, (a net loss of cells following treatment). […] Coibamide A produced mean cytostatic (GI50 and TGI with range) and cytotoxic (LC50 and range) parameters as follows: log GI50, −8.04 (2.96); log TGI, −5.85 (3.43); log LC50, −5.11 (2.66). These log mean values of <−4 with log range values of >2 indicate both potency and histological selectivity (FIG. 4).

HT29 (colon cancer) = assay: NCI60 screen, HT29; format: cell-based, human
Description: as §1

[1] = test system: MDA-MB-435 (breast cancer); assay: NCI60 screen, MDA-MB-435; format: cell-based, human; conditions: second screen
Description: as §1

RXF 393 (renal cancer) = assay: NCI60 screen, RXF 393; format: cell-based, human; conditions: second screen
Description: as §1

[2] = test system: HeLa cervical cancer cells; assay: immunofluorescence study in HeLa cells; format: cell-based
Description: (§2) Cytoskeletal assays were carried out on 1. […] Therefore, it was hypothesized that 1 might cause mitotic abnormalities by a non-tubulin dependent mechanism, and flow cytometry studies were initiated to look at the effect of the compound on cell cycle distribution (FIG. 2).

M-14 (melanoma) = assay: NCI60 screen, M-14; format: cell-based, human; conditions: second screen
Description: as §1

[3] = test system: NCI-H460 human lung tumor cells; assay: MTT cytotoxicity, NCI-H460 cells; format: cell-based; conditions: 48 hours, read-out: LC50 (the source's name)
Description: (§3) Cytotoxicity was measured in NCI-H460 human lung tumor cells and neuro-2a mouse neuroblastoma cells using the method of Alley et. al. (Cancer Res. (1988) 48:589-601) with cell viability being determined by 3-(4,5-dimethylthiazol-2-yl)-2,5-diphenyltetrazolium bromide (MTT) reduction (Manger et al. (1995) J. AOAC Int., 78:521-527). Cells were seeded in 96-well plates at 6000 cells/well in 180 μL of RPMI 1640 medium with 10% fetal bovine serum. Twenty-four hours later, the test chemical was dissolved in DMSO, diluted into medium without fetal bovine serum and added at 20 μL/well. DMSO was less than 0.5% of the final concentration. After 48 hours, the medium was removed and cell viability determined.

A-10 cells = assay: cytoskeletal immunofluorescence study in A-10 cells; format: cell-based
Description: as §2

SK-OV-3 (ovarian cancer) = assay: NCI60 screen, SK-OV-3; format: cell-based, human; conditions: first screen
Description: as §1

SR (leukemia) = assay: NCI60 screen, SR; format: cell-based, human
Description: as §1

LOX IMVI (melanoma) = assay: NCI60 screen, LOX IMVI; format: cell-based, human
Description: as §1

SF-295 (CNS cancer) = assay: NCI60 screen, SF-295; format: cell-based, human; conditions: first screen
Description: as §1

MDA-MB-435 cells = assay: cell cycle analysis by flow cytometry; format: cell-based; conditions: 24 hours
Description: For cell cycle analysis, MDA-MB-435 cells were treated for 24 hours with vehicle or sample. The cells were harvested and stained with Krishan's reagent. This suspension was analyzed using a Becton Dickinson FACScan flow cytometer, and the data were plotted as propidium iodide intensity versus the number of events. Quality control samples were run with each assay to ensure instrument linearity and resolution.

A498 (renal cancer) = assay: NCI60 screen, A498; format: cell-based, human; conditions: second screen
Description: as §1

HCC-2998 (colon cancer) = assay: NCI60 screen, HCC-2998; format: cell-based, human
Description: as §1

SNB-75 (CNS cancer) = assay: NCI60 screen, SNB-75; format: cell-based, human; conditions: second screen
Description: as §1

T-47D (breast cancer) = assay: NCI60 screen, T-47D; format: cell-based, human
Description: as §1

SF-539 (CNS cancer) = assay: NCI60 screen, SF-539; format: cell-based, human
Description: as §1

COLO 205 (colon cancer) = assay: NCI60 screen, COLO 205; format: cell-based, human
Description: as §1

[4] = test system: MDA-MB-231/ATCC (breast cancer); assay: NCI60 screen, MDA-MB-231/ATCC; format: cell-based, human
Description: as §1

SK-MEL-5 (melanoma) = assay: NCI60 screen, SK-MEL-5; format: cell-based, human
Description: as §1

HL60(TB) (leukemia) = assay: NCI60 screen, HL60(TB); format: cell-based, human; conditions: second screen
[5] = test system: National Cancer Institute NCI60 tumor cell lines; assay: NCI60 tumor cell line panel; format: cell-based, human
Description: as §1

[6] = test system: neuro-2a mouse neuroblastoma cells; assay: MTT cytotoxicity, neuro-2a cells; format: cell-based; conditions: mouse/rat NG108-15, N2a, 48 hours, read-out: LC50 (the source's name)
Description: as §3

[7] = test system: histone deacetylase (HDAC); assay: HDAC inhibition; format: biochemical
HOP-92 (NSCLC) = assay: NCI60 screen, HOP-92; format: cell-based, human
Description: as §1

[8] = mean over the panel, log range in brackets, preliminary

`CCC(C)C1C(=O)NC(C)C(=O)N(C)C(CC(C)C)C(=O)NC(Cc2ccc(OC)cc2)C(=O)N(C)C(C)C(=O)OC(C)C(N(C)C(=O)C(CC(C)C)N(C)C(=O)C(COC)N(C)C(=O)C(OC(=O)C(C(C)C)N(C)C)C(C)C)C(=O)N(C)C(COC)C(=O)N1C` (centres unmarked) [Coibamide A] (ξNMe2Val-[Hiv][NMeS](Me)[NMeL][NMeT][NMeS](Me)[NMeI]A[NMeL]Y(Me)[NMeA]; ester 4-C; configuration not given here) was tested. Which TGI (UACC-62) did it give?
Its TGI is 80.6 nM.

What about the LC50 (concentration giving 50% net cell loss) (HT29 (colon cancer); Homo sapiens, HT-29, NCI60 screen) of the same compound?
The LC50 (concentration giving 50% net cell loss) was 93.3 nM.

And the GI50 (HT29 (colon cancer); Homo sapiens, HT-29, undefined activity)?
Its GI50 is under 1 nM.

What about the TGI (HT29 (colon cancer); first screen) of the same compound?
The TGI was 10.4 nM.

And the TGI (HT29 (colon cancer); second screen)?
The TGI was 14.6 nM.

What about the TGI [1] of the same compound?
The TGI was 100 nM.

What about the TGI (RXF 393 (renal cancer)) of the same compound?
Its TGI is 82.3 nM.

And the mitotic structures ([2]; 100 nM concentration)?
The mitotic structures was “two aberrant mitotic structures were observed”.

What about the “phenotypic effects on microtubules or nuclear structures” value ([2]; immunofluorescence) of the same compound?
Its value is “did not show any expected phenotypic effects on microtubules or on nuclear structures”.

What about the TGI (M-14 (melanoma)) of the same compound?
Its TGI is 11.2 nM.

And the CC50 [3]?
The CC50 was > 0.03 µg/mL and > 23 nM.

And the microtubule changes (A-10 cells)?
The microtubule changes was “did not show any of the expected microtubule changes”.

What about the mitotic spindles (A-10 cells) of the same compound?
The mitotic spindles was “some monopolar mitotic spindles were observed”.

And the TGI (SK-OV-3 (ovarian cancer))?
The TGI was 9.8 nM.

What about the TGI (SR (leukemia); first screen) of the same compound?
The TGI was 16.6 nM.

And the TGI (SR (leukemia); second screen)?
Its TGI is 87.0 nM.

And the TGI (LOX IMVI (melanoma); first screen)?
Its TGI is 6.6 nM.

And the TGI (LOX IMVI (melanoma); second screen)?
The TGI was 7.4 nM.

What about the TGI (SF-295 (CNS cancer)) of the same compound?
The TGI was 21.9 nM.

And the “cells in G2/M” value (MDA-MB-435 cells)?
Its value is “no change in G2/M”.

What about the mitotic accumulation (MDA-MB-435 cells) of the same compound?
The mitotic accumulation was “does not cause any significant mitotic accumulation”.

What about the “cells in G1 phase” value (MDA-MB-435 cells; dose dependent) of the same compound?
The value was “large increase in the number of cells in G1 phase”.

What about the “cells in S phase” value (MDA-MB-435 cells; dose dependent) of the same compound?
The value was “reduction of cells in S phase”.

What about the TGI (A498 (renal cancer)) of the same compound?
Its TGI is 74.4 nM.

What about the GI50 (HCC-2998 (colon cancer); Homo sapiens, HCC 2998, undefined activity) of the same compound?
Its GI50 is under 1 nM.

What about the TGI (HCC-2998 (colon cancer); first screen) of the same compound?
The TGI was 8.3 nM.

And the TGI (HCC-2998 (colon cancer); second screen)?
The TGI was 93.7 nM.

What about the TGI (SNB-75 (CNS cancer)) of the same compound?
Its TGI is 7.6 nM.

What about the GI50 (T-47D (breast cancer); Homo sapiens, T47D, undefined activity) of the same compound?
Its GI50 is under 1 nM.

What about the TGI (T-47D (breast cancer); first screen) of the same compound?
Its TGI is 5.4 nM.

And the TGI (SF-539 (CNS cancer); first screen)?
The TGI was 30.3 nM.

What about the TGI (SF-539 (CNS cancer); second screen) of the same compound?
Its TGI is 28.7 nM.

And the CC50 (COLO 205 (colon cancer); Homo sapiens, COLO 205, NCI60 screen, read-out: LC50 (the source's name))?
The CC50 was 35.8 nM.

What about the TGI (COLO 205 (colon cancer); first screen) of the same compound?
Its TGI is 4.9 nM.

What about the TGI (COLO 205 (colon cancer); second screen) of the same compound?
The TGI was 15.7 nM.

And the TGI ([4]; first screen)?
The TGI was 25.1 nM.

What about the TGI ([4]; second screen) of the same compound?
Its TGI is 2.8 nM.

And the GI50 (SK-MEL-5 (melanoma); Homo sapiens, SK-MEL-5, undefined activity)?
Its GI50 is under 1 nM.

And the TGI (SK-MEL-5 (melanoma); first screen)?
The TGI was 6.0 nM.

And the TGI (SK-MEL-5 (melanoma); second screen)?
The TGI was 26.9 nM.

What about the TGI (HL60(TB) (leukemia)) of the same compound?
Its TGI is 7.4 nM.

And the “activity by cancer type from the mean graph for GI50 values” [5]?
The value was “consistently active against leukemias, CNS, colon, and breast cancer cells”.

What about the GI50 values ([5]; 53 of the 55 cancer cell lines screened) of the same compound?
Its GI50 values is “Nanomolar or better”.

And the CC50 ([5]; Homo sapiens, mean over the panel, log range in brackets, preliminary, read-out: mean log LC50 (range) (converted))?
Its CC50 is 7760 nM.

What about the “mean log GI50 (range)” value [5, 8] of the same compound?
The value was −8.04 (2.96).

What about the “mean log TGI (range)” value [5, 8] of the same compound?
The value was −5.85 (3.43).

What about the CC50 [6] of the same compound?
The CC50 was > 0.03 µg/mL and > 23 nM.

And the HDAC inhibitor activity [7]?
The HDAC inhibitor activity was “no significant activity”.

What about the TGI (HOP-92 (NSCLC); first screen) of the same compound?
The TGI was 25.4 nM.

What about the TGI (HOP-92 (NSCLC); second screen) of the same compound?
Its TGI is 11.4 nM.
